“Also recorded” adds a separate entry of the source.
Legend:
[1] = test system: G. lamblia trophozoites (luciferase expressing, WBC6); assay: microbe, parasite or virus in culture; assay type: cell-based, Giardia lamblia; conditions: for Giardia (16 uM) Mean % inhibition: initial Pathogen Box screen, single concentration 16 µM, inhibition compared to DMSO wells
In short: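 Incubation ran 24 h at 37 °C under anaerobic conditions, with compound added in equal volume to trophozoites (WBC6, luciferase-expressing, 250,000 cells/mL). Bioluminescence was the read-out, cross-checked by MOXI Z counts on a duplicate plate; metronidazole served as control (1:2 dilutions from 40 μM).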

[2] = test system: C. parvum (UGA1 Nluc expressing strain in HCT-8 cells); assay: microbe, parasite or virus in culture; assay type: cell-based, Cryptosporidium parvum; conditions: for Crypto (10 uM) Mean % inhibition: initial Pathogen Box screen, single concentration 10 µM, inhibition compared to DMSO wells
In short: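 Parasite growth quantified by NanoLuc luminescence from lysed infected HCT-8 cells, with EC50 fitted from dose curves. Compounds, single-dose 10 μM or serially diluted, were added to confluent 48 h monolayers before infection with bleached UGA1 Nluc oocysts.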

Compound | Giardia (16 uM) Mean % inhibition [1] | Crypto (10 uM) Mean % inhibition [2] | other results
Cc1ccc(C(=O)Nc2ccc(S(=O)(=O)O)c3cc(S(=O)(=O)O)cc(S(=O)(=O)O)c23)cc1NC(=O)c1cccc(NC(=O)Nc2cccc(C(=O)Nc3cc(C(=O)Nc4ccc(S(=O)(=O)O)c5cc(S(=O)(=O)O)cc(S(=O)(=O)O)c45)ccc3C)c2)c1 [MMV637953] | 10% | 36% | –
CC(C)(C(=O)Nc1ccc(F)cc1)n1cc(-c2ccccc2F)cn1 [MMV687239] | 39% | 59% | –
Cc1cccnc1NC(=O)c1cccc(OCc2c(C)noc2C)c1 [MMV688793] | 45% | 63% | –
Clc1ccc(Cl)c(CO[C@H]2CCCC[C@@H]2n2ccnc2)c1 [MMV676048] | 37% | 49% | –
C[C@H]1COc2c(N3CCN(C)CC3)c(F)cc3c(=O)c(C(=O)O)cn1c23 [MMV687798] | 61% | 50% | –
CCN(CC)CCCCCCNc1cc(OC)cc2c(C)ccnc12 [MMV000063] | 26% | 62% | –
O=C(NC1CC1)c1ccc(N2CCC(Cc3ccccc3)CC2)nc1 [MMV024397] | X* (Mean or standard deviation are negative but not significantly different from the control to be a growth promoter) | X* (Mean or standard deviation are negative but not significantly different from the control to be a growth promoter) | –
O=C(NCCc1c[nH]c2ccccc12)c1cc2ccccc2oc1=O [MMV676539] | 7% | 22% | –
O[C@@H](c1cc(C(F)(F)F)nc2c(C(F)(F)F)cccc12)[C@H]1CCCCN1 [MMV000016] | 16% | 77% | –
CCc1cc(=O)n(C)c(SC(C)C(=O)Nc2ccc(F)cc2)n1 (stereo not shown) [MMV688980] | 17% | X* (Mean or standard deviation are negative but not significantly different from the control to be a growth promoter) | –
O=C(c1ccc(F)cc1)N(CCNc1ccccc1)c1ccccc1 [MMV676204] | 28% | 55% | –
NS(=O)(=O)c1cncc(-c2ccc3nccc(-c4cn[nH]c4)c3n2)c1 [MMV024101] | 14% | X* (Mean or standard deviation are negative but not significantly different from the control to be a growth promoter) | –
CC[C@@H]([C@H](C)O)n1ncn(-c2ccc(N3CCN(c4ccc(OC[C@@H]5CO[C@@](Cn6cncn6)(c6ccc(F)cc6F)C5)cc4)CC3)cc2)c1=O [MMV688774] | X* (Mean or standard deviation are negative but not significantly different from the control to be a growth promoter) | 90% | –
N=C(N)c1ccc(OCCCCCOc2ccc(C(=N)N)cc2)cc1 [MMV000062, pentamidine, reference compound] | – | – | G. lamblia inhibition of parasite growth in the initial screen ([1]; 16 μM, 24 hours): did not show up in the screen; inhibition at 16 µM ([1]; Giardia duodenalis, read-out: Giardia (16 uM) Mean % inhibition): 9%; inhibition at 10 µM ([2]; Cryptosporidium parvum, HCT-8, read-out: Crypto (10 uM) Mean % inhibition): 50%
CCOc1ccc(OCC(=O)Nc2cc(C)cc(C)c2)cc1 [MMV676470] | 12% | X* (Mean or standard deviation are negative but not significantly different from the control to be a growth promoter) | –
O=C(Nc1cccc(Cl)c1)c1cnc(N2CCN(c3ccncc3)CC2)c(Cl)c1 [MMV024406] | 91% | 91% | C. parvum EC50 ([2]; Nluc C. parvum in HCT-8 cells, 48 hours): not potent
Cc1nn(C)cc1C(C)Nc1nncc(-c2ccc(C(F)(F)F)cc2)n1 (stereo not shown) [MMV019993] | 22% | X* (Mean or standard deviation are negative but not significantly different from the control to be a growth promoter) | –

Compound | Giardia (16 uM) Mean % inhibition [1] | Crypto (10 uM) Mean % inhibition [2] | other results
Nc1nccc2ccc(Oc3ccncc3)cc12 [MMV026313] | X* (Mean or standard deviation are negative but not significantly different from the control to be a growth promoter) | X* (Mean or standard deviation are negative but not significantly different from the control to be a growth promoter) | –
CC[C@H](CO)NCCN[C@H](CC)CO [MMV687801] | X* (Mean or standard deviation are negative but not significantly different from the control to be a growth promoter) | 8% | –
O=C(Cn1ccnc1[N+](=O)[O-])NCc1ccccc1 [MMV688773] | 57% | 55% | –
Cc1ncc(-c2ccnc(Nc3ccc(S(C)(=O)=O)cc3)n2)n1C(C)C [MMV676604] | 92% | 92% | G. lamblia EC50 ([1]; luciferase expressing G. lamblia trophozoites, 24 hours, D-luciferin bioluminescence read-out): not effective; also recorded: not potent; EC50 ([2]; Nluc C. parvum in HCT-8 cells, 48 hours, read-out: C. parvum EC50): 2900 nM
Cc1cc(C)n2nc(C(=O)Nc3cc(C(F)(F)F)ccc3N3CCOCC3)nc2n1 [MMV019087] | X* (Mean or standard deviation are negative but not significantly different from the control to be a growth promoter) | 35% | –
CNc1cc(C)nc(C2CN(C(=O)c3n[nH]c4ccccc34)CCO2)c1 (stereo not shown) [MMV689709] | 19% | 45% | –
Nc1ncc(-c2cn[nH]c2)cc1-c1nc2cc(Cl)cnc2[nH]1 [MMV023370] | 38% | X* (Mean or standard deviation are negative but not significantly different from the control to be a growth promoter) | –
FC(F)(F)c1cccc(-c2nc3c(NCc4ccncc4)nccc3[nH]2)c1 [MMV032967] | 26% | 27% | –
NC(CC(=O)c1ccc(Cl)cc1Cl)C(Cl)(Cl)Cl (stereo not shown) [MMV676468] | 55% | X* (Mean or standard deviation are negative but not significantly different from the control to be a growth promoter) | –
CC1=NN(c2nc3ccccc3s2)C(=O)C1Cc1cccc2ccccc12 (stereo not shown) [MMV676558] | 42% | 89% | –
O=C(NCc1cc(Cl)cc(Cl)c1)c1c(C(F)(F)F)nc2ccccn12 [MMV687699] | 16% | 32% | –
CCOC(=O)c1noc(N)c1-c1ccccc1 [MMV1236379] | X* (Mean or standard deviation are negative but not significantly different from the control to be a growth promoter) | X* (Mean or standard deviation are negative but not significantly different from the control to be a growth promoter) | –
COc1cccc(NC(=O)c2c(NC(=O)c3cccnc3)sc3c2CCC3)c1 [MMV228911] | 37% | 39% | –
Cc1ccc(NC(=O)CC2COc3ccccc3O2)cc1Cl (stereo not shown) [MMV676431] | 18% | X* (Mean or standard deviation are negative but not significantly different from the control to be a growth promoter) | –
OC[C@H]1O[C@@H](n2c3ccc(Cl)cc3c3c(-c4cc5ccccc5o4)ncnc32)C(O)[C@H]1O (stereo partly shown) [MMV688921] | 5.44% | 51% | –
CC(C)n1ncc2c(C(=O)NCC(c3cccs3)N3CCOCC3)cc(-c3ccccc3)nc21 (stereo not shown) [MMV676406] | 34% | X* (Mean or standard deviation are negative but not significantly different from the control to be a growth promoter) | –

Reference: publication PMC6095626, “Screening of the Pathogen Box for inhibitors with dual efficacy against Giardia lamblia and Cryptosporidium parvum” (PLoS Neglected Tropical Diseases, 2018)
